Tests used:
[1] = system: patients with advanced cancers; test: Phase 1/1b clinical trial, tumor response by baseline biomarker level; format: in vivo, human; details: for Objective response rate / Disease control rate: 100 mg orally twice a day, 28 days
Method: FIG. 3 is a graph showing tumor response to treatment with the compound of Formula (III) in patients expressing low levels of adenosine A2A receptors and patients expressing high levels of adenosine A2A receptors. RNA was extracted from pre-treatment tumor samples, and Nanostring was performed to arrive at the values described herein. The disease control rate was 0 of 11 patients who expressed low levels of adenosine A2A receptors, and was 9 of 26 patients who expressed high levels of adenosine A2A receptors. The objective response rate was 0 of II patients who expressed low levels of adenosine A2A receptors, and 1 of 26 patients who expressed high levels of adenosine A2A receptors.
FIG. 4 is a graph showing tumor response to treatment with the compound of Formula (III) in patients expressing low levels of CD73 and patients expressing high levels of CD73. RNA was extracted from pre-treatment tumor samples, and Nanostring was performed to arrive at the values described herein. The disease control rate was 1 of 9 patients who expressed low levels of CD73, and was 8 of 28 patients who expressed high levels of CD73. The objective response rate was 0 of 9 patients who expressed low levels of CD73, and was 1 of 28 patients who expressed high levels of CD73.
FIG. 5 is a graph showing tumor response to treatment with the compound of Formula (III) in patients expressing low levels of adenosine A2A receptors and/or CD73 and patients expressing high levels of both adenosine A2A receptors and CD73. RNA was extracted from pre-treatment tumor samples, and Nanostring was performed to arrive at the values described herein. The disease control rate was 8 of 21 patients who expressed low levels of adenosine A2A receptors and/or CD73, and was 1 of 16 patients who expressed high levels of both adenosine A2A receptors and CD73. The objective response rate was 1 of 21 patients who expressed low levels of adenosine A2A receptors and/or CD73, and was 0 of 16 patients who expressed high levels of both adenosine A2A receptors and CD73.
FIG. 6 is a graph showing tumor response to treatment with the compound of Formula (III) in patients expressing low levels of PD-L1 mRNA and patients expressing high levels of PD-L1 mRNA. RNA was extracted from pre-treatment tumor samples, and Nanostring was performed to arrive at the values described herein. The disease control rate was 3 of 17 patients who expressed low levels of PD-L1 mRNA, and was 6 of 20 patients who expressed high levels of PD-L1 mRNA. The objective response rate was 0 of 17 patients who expressed low levels of PD-L1 mRNA, and was 1 of 20 patients who expressed high levels of PD-L1 mRNA.
FIG. 7 is a graph showing tumor response to treatment with the compound of Formula (III) in patients having low levels of PD-L1 and patients having high levels of PD-L1. PD-L1 staining on immune cells was determined by immunohistochemistry using the SP142 antibody that detects PD-L1. The disease control rate was 7 of 24 patients who expressed low levels of PD-L1, and was 2 of 13 patients who expressed high levels of PD-L1. The objective response rate was 0 of 24 patients who expressed low levels of PD-L1, and was 1 of 13 patients who expressed high levels of PD-L1.
“Objective response rate” refers to the patients that had greater than 30% reduction in the sum of the longest dimensions of their assessed target tumor lesions.
The compound of Formula (III) is being investigated in an ongoing Phase 1/1b clinical trial in patients with advanced cancers (NCT02655822 at www.clinicaltrials.gov). Biomarker investigations were conducted to explore immune modulation in serial tumor biopsies and peripheral blood as well associations between adenosine pathway genes and clinical activity. […]

[2] = system: tumor biopsies; test: On-treatment vs pre-treatment tumor biopsies, IHC and Nanostring gene expression; format: in vivo, human; details: on-treatment biopsies compared to pre-treatment biopsies
Excerpt: FIGS. 8A-8H show log2-fold changes in immunohistochemistry and gene expression (i.e., mRNA) by Nanostring on on-treatment biopsies compared to pre-treatment biopsies and identifies pharmacodynamics changes that are observed in CD73-high tumors treated with a compound of Formula (III). FIG. 8A compares CD8 infiltration, measured by IHC, in patients expressing low levels and high levels of CD73 (where the p=0.005) after treatment with the compound of Formula (III). FIG. 8B compares PD-L1 inflammation infiltration, measured by IHC, in patients expressing low levels and high levels of CD73 (p=0.15) after treatment with the compound of Formula (III). FIG. 8C compares CXCL9 (chemokine C-X-C motif ligand 9) gene expression in patients expressing low levels and high levels of CD73 (p=0.02) after treatment with the compound of Formula (III). […]
The patients were orally administered the compound of Formula (III) at a dose of 100 mg, twice a day, for twenty-eight days. Tumor biopsies and blood samples were analyzed from patients with renal cell carcinoma, non-small cell lung cancer, triple negative breast cancer, microsatellite instable colorectal cancer treated with the compound of Formula (III). Paired tumor biopsies were analyzed: gene expression profiles (Nanostring), CD8, PD-L1 and CD73 (IHC). […]

[3] = system: T cell function; test: Suppression of T cell function by adenosine; format: cell-based
[4] = Preclinical models
[5] = patients expressing high levels of both adenosine A2A receptors and CD73
[6] = patients expressing low levels of adenosine A2A receptors and/or CD73

For `Cc1ccc(-c2nc(N)nc3c2nnn3Cc2cccc(COC3CCOC3)n2)o1` (centres unmarked) [compound of Formula (III)], the Objective response rate ([1]; patients expressing high levels of CD73) was 1 of 28, the Disease control rate ([1]; patients expressing high levels of CD73 (Nanostring)) was 8 of 28 and the Objective response rate ([1]; patients expressing high levels of PD-L1 mRNA) was 1 of 20. For the same compound, the Disease control rate ([1]; patients expressing high levels of PD-L1 mRNA (Nanostring)) was 6 of 20, the Objective response rate ([1]; patients expressing high levels of adenosine A2A receptors) was 1 of 26 and the Disease control rate ([1]; patients expressing high levels of adenosine A2A receptors (Nanostring, pre-treatment tumor)) was 9 of 26. The Disease control rate [1, 5] was 1 of 16, the Objective response rate [1, 5] was 0 of 16 and the Objective response rate ([1]; patients expressing low levels of CD73) was 0 of 9. The Disease control rate ([1]; patients expressing low levels of CD73 (Nanostring)) was 1 of 9, the Objective response rate ([1]; patients expressing low levels of PD-L1 mRNA) was 0 of 17 and the Disease control rate ([1]; patients expressing low levels of PD-L1 mRNA (Nanostring)) was 3 of 17. The Disease control rate ([1]; patients expressing low levels of adenosine A2A receptors (Nanostring, pre-treatment tumor)) was 0 of 11, the Disease control rate [1, 6] was 8 of 21 and the Objective response rate [1, 6] was 1 of 21. The Disease control rate ([1]; patients with high levels of PD-L1 (IHC on immune cells, SP142 antibody, ≥1%)) was 2 of 13, the Objective response rate ([1]; patients with high levels of PD-L1 (IHC, SP142)) was 1 of 13 and the Disease control rate ([1]; patients with low levels of PD-L1 (IHC on immune cells, SP142 antibody, <1%)) was 7 of 24. For the same compound, the Objective response rate ([1]; patients with low levels of PD-L1 (IHC, SP142)) was 0 of 24, the Tumor regression ([1]; patients with elevated expression of adenosine A2A receptor genes, CD73 and PD-L1 in baseline tumor samples compared to patients having low expression) was “significant tumor regression” and the “Pharmacodynamics changes in IHC and gene expression” value [2] was “observed only in CD73-high tumors”. For the same compound, the “Effect on suppression of T cell function by adenosine” value [3] was “inhibits suppression of T cell function by adenosine” and the “Activity in preclinical models” value [4] was “active in multiple preclinical models”.
